Experimental data taken from patent US20140187538A1, “LORCASERIN HYDROCHLORIDE” (DR. REDDY'S LABORATORIES LTD., priority 2012, published 2014).

Assay: physical stability of the amorphous solid form (tendency to crystallize over time)
Format: physicochemical
Conditions: solid state; amorphous drug substance alone vs amorphous solid dispersion; crystallization over a period of time

Q: Which physical stability does the source give for `C[C@H]1CNCCc2ccc(Cl)cc21.Cl` [amorphous lorcaserin hydrochloride] here?
A: limited physical stability
